Here are results for 2 molecules from patent US6472397B1, “Nitrogen-containing heterocyclic compounds having antiplatelet aggregation effect and medicinal use thereof” (Meiji Seika Kaisha, Ltd., priority 1998, dated 2002).

Data set [1] relates to human PRP (platelet rich plasma). As to the kind of experiment: Platelet aggregation inhibiting effect, ADP-induced, human PRP. The format is cell-based. The conditions noted are these: ADP final concentration 5 μM, preincubation 2 minutes, read-out: IC50 calculated from the aggregation rate. As for the experimental part:
Among the compounds represented by the general formula (I) according to the present invention, the platelet aggregation inhibiting effect of the above compound A was examined with human PRP (platelet rich plasma).
A 9 volume sample of blood was taken out through an injection syringe having 1 volume of 3.8% sodium citrate added thereto from the vein of normal human (male), centrifuged at 170×g for 10 minutes at room temperature, and the resulting supernatant was isolated as PRP. The residual blood from which PRP had been isolated was centrifuged at 2,700×g for 15 minutes, and the resulting supernatant was isolated as platelet poor plasma (PPP).
The platelet aggregation test was carried out with AGGRIGOMETER (PAM-8C) manufactured by MEBANICS. The substance to be tested is dissolved in 50% DMSO-physiological saline, 50% methanol-physiological saline, or a physiological saline. The preincubation time of the substance to be tested and PRP was set as 2 minutes. An aggregation driving agent ADP (CHRONO-PARREAGENTS384 ADP, CHRONO-LOG Corp.) was diluted with physiological saline so that the final concentration is 5 μM.
The platelet aggregation inhibiting activity was calculated from the following equation as the suppressive rate against the […] by ADP when no compound to be tested was added:
Platelet aggregation inhibiting activity (%)= [formula]

Data set [2] in a line: Oral administration test: bioavailability in rats. The format is in vivo. The conditions noted are these: result in words. Here is the method: 1) Preparation of a Solution to be Administered
The compound was dissolved or suspended in either of the solvents in which the compound is preferably dispersed or dissolved including distilled water, CMC-Na, Tween 80, and HCO 60 to prepare the liquids for intravenous injection and oral administration. The liquids for intravenous injection and oral administration have a concentration of 0.3 mg/ml and 5 mg/ml, respectively. The concentrations of the compounds were determined by HPLC.
Rats having fasted for 16-20 hours were subjected to cannulation with a polyethylene tube (PE50) into femoral artery. […] The plasma samples were treated according to the method described below, and the activity substance was then measured by HPLC. […]
Among the observed values after administration, the observed values corresponding to the maximum plasma concentration (Cmax) and the time for reaching the maximum plasma concentration (Tmax) were confirmed. […] The area below the plasma concentration-time curve from 0 to infinity (AUCinfinite) was calculated by the trapezoidal method until the final observed value, and after the final observed value from the final observed value/kel as the sum of respective values. […]
Bioavailability (B.A. (%)) was calculated from the following equation: […]

pIC50: −log10 of the molar value.

As for `O=C(O)COc1ccc(C(=O)CN2CCN(C3CCNCC3)CC2=O)cc1` [Compound A], the pIC50 in data set [1] is 7.38. On to `CCOC(=O)COc1ccc(C(=O)CNC(=O)c2cc3c(s2)CCN(C(=O)OC(C)OC(C)=O)C3)cc1OCC(=O)OCC` (centres unmarked) [Compound B, Diethyl [[4-[[[[5-(1-Acetoxyethyl)oxycarbonyl-4,5,6,7-tetrahydrothieno[3,2-c]pyridin-2-yl]carbonyl]amino]-acetyl]-o-phenylene]dioxy]diacetate], for which the “absorption capacity via oral administration” value in data set [2] is on record as “no high absorption capacity”.

One may read the pIC50 as the negative decadic logarithm of the IC50, by convention in mol/L.
